Key:
[1] = molecular target: Sodium-dependent noradrenaline transporter (Homo sapiens, UniProt P23975)
[2] = molecular target: T1, Sodium-dependent dopamine transporter (Homo sapiens, UniProt Q01959); assay: Equilibrium dissociation constant (KD) for Competitive binding between [3H]WIN-35428 and the compound at human transporter-hDAT
[3] = molecular target: Glutamate NMDA receptor; assay: Inhibition of N-methyl-D-aspartate (NMDA) Receptor, by the displacement of [3H]MK-801 in rat brain membranes; format: cell membranes
[4] = molecular target: Norepinephrine transporter (Rattus norvegicus, UniProt Q9WTR4); format: subcellular, Hippocampus
Sequence of Norepinephrine transporter (Q9WTR4 whole entry): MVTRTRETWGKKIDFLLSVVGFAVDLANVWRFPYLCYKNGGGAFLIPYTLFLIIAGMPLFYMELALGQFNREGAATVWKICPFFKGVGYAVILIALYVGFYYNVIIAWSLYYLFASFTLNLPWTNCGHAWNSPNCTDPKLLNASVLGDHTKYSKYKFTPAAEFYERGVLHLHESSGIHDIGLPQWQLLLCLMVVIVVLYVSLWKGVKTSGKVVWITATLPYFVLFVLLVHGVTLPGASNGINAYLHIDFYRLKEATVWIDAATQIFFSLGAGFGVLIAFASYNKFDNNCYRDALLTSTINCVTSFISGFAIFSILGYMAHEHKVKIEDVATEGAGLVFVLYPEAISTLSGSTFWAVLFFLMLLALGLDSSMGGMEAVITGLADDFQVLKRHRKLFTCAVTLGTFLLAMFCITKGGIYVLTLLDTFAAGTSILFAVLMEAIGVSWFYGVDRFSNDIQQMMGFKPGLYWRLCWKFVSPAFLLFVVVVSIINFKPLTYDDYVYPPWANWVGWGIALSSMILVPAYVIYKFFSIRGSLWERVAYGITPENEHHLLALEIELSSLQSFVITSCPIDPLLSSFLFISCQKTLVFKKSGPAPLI

[5] = molecular target: Sodium-dependent dopamine transporter (Rattus norvegicus, UniProt P23977); assay: Inhibition of [3H]- DA reuptake into rat striatal synaptosomes; format: subcellular, Brain
Sequence of Sodium-dependent dopamine transporter (Rattus norvegicus, UniProt P23977) (P23977 whole entry): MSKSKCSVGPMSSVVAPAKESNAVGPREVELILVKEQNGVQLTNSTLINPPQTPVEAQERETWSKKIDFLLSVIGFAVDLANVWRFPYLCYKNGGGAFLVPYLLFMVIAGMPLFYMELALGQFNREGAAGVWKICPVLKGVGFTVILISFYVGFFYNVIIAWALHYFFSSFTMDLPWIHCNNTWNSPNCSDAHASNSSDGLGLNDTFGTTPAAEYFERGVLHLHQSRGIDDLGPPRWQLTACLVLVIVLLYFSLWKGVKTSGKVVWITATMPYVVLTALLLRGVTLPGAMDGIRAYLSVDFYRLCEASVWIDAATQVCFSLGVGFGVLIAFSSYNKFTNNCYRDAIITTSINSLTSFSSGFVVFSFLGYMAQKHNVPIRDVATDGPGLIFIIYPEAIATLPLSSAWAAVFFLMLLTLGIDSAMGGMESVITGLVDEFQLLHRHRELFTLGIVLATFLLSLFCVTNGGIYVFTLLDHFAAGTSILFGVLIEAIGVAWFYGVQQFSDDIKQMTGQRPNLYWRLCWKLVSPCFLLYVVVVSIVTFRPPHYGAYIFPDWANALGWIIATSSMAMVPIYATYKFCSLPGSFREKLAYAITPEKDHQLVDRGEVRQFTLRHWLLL

[6] = species on record: Rattus norvegicus; assay: Compound was evaluated for Dopamine reuptake inhibition in rat striatal synaptosomes; format: functional, Brain
[7] = molecular target: Glutamate NMDA receptor; assay: Compound was evaluated for noncompetitive inhibition of N-methyl-D-aspartate (NMDA) Receptor by the displacement of [3H]MK-801 in rat brain membranes; format: cell membranes
[8] = molecular target: T1, Sodium-dependent dopamine transporter; assay: Equilibrium dissociation constant (KD) for Competitive binding between [3H]WIN-35428 and the compound at human transporter -hDAT

T1 sequence (Q01959 whole entry): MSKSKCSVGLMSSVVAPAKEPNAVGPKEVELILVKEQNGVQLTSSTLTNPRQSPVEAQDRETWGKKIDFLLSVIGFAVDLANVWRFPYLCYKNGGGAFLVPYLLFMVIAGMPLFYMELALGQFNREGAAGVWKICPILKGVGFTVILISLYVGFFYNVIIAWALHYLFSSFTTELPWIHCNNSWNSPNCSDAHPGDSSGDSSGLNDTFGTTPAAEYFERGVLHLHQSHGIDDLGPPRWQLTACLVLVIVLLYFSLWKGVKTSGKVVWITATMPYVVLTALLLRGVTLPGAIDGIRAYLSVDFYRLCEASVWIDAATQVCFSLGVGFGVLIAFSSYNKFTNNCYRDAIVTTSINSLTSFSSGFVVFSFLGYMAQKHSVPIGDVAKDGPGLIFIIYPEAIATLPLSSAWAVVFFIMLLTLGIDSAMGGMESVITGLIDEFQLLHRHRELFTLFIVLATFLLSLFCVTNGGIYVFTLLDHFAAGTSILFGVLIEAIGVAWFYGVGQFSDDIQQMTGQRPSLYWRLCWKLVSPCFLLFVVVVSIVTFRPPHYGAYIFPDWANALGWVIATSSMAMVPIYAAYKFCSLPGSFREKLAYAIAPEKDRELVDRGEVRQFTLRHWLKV
Sequence of Sodium-dependent noradrenaline transporter (P23975 whole entry): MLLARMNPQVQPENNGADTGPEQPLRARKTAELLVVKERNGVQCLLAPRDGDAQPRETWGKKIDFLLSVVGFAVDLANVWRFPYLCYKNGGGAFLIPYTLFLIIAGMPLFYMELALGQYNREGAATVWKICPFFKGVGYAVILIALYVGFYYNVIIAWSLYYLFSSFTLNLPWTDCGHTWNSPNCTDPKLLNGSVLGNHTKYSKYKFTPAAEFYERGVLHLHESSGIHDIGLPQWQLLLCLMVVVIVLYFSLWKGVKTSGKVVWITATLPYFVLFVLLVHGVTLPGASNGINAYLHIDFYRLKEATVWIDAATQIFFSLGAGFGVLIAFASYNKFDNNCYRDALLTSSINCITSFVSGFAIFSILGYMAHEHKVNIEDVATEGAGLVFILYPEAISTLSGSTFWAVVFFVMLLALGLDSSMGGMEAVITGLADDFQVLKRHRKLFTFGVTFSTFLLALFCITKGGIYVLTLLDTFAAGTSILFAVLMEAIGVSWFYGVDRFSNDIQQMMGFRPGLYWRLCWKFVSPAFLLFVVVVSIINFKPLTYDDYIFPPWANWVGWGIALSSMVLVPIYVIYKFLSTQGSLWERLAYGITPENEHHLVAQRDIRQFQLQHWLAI

| Compound | Kd [1] [µM] | Kd [2] [µM] | IC50 [3] [µM] | Ki [4] [µM] | Ki [5] [µM] | Kd [6] [µM] | IC50 [7] [µM] | Kd [8] [µM] |
| --- | --- | --- | --- | --- | --- | --- | --- | --- |
| Cc1cc(C)c([C@H](O)[C@@H](CN)c2ccccc2)c(C)c1 (racemic) | 22.5 | 0.34 | 63 | 8.6 | 5.31 | – | – | – |
| Cc1cc(C)c([C@H](O)[C@@H](CN(C)C)c2ccccc2)c(C)c1 (racemic) | 35.8 | 42 | > 200 | 8.5 | 4.88 | – | – | – |
| NC[C@@H](c1ccccc1)[C@@H](O)c1ccccc1 (racemic) | 12.5 | 24 | 5.6 | 5.78 | 6.6 | – | – | – |
| NC[C@@H](c1ccc2ccccc2c1)[C@@H](O)c1ccccc1 (racemic) | – | 0.14 | 65 | – | – | – | – | – |
| CC(C)(C)[C@H](O)[C@@H](CN)c1ccc2ccccc2c1 (racemic) | 0.055 | 27 | 3 | – | 0.12 | 0.278 | – | – |
| CCc1nn(CCCN2CCN(c3cccc(Cl)c3)CC2)c(=O)n1CCOc1ccccc1 [NEFAZODONE] | – | – | – | – | 2.38 | – | – | – |
| CN(C)C[C@@H](c1ccc2ccccc2c1)[C@@H](O)C(C)(C)C (racemic) | 0.0299 | 0.34 | 21 | 0.01 | 0.06 | – | – | – |
| CN(C)C[C@@H](c1ccccc1)[C@@H](O)C(C)(C)C (racemic) | 3.43 | 21.4 | 121 | 0.83 | 1.2 | – | – | – |
| COc1ccc([C@H](CN(C)C)[C@@H](O)C2CCCCC2)cc1 (racemic) | 1.8 | 3.5 | > 200 | 0.22 | 0.64 | – | – | – |
| CN(C)C[C@@H](c1ccc2ccccc2c1)[C@@H](O)c1ccccc1 (racemic) | – | 0.07 | 143 | – | – | – | – | – |
| CC(C)(C)[C@H](O)[C@@H](CN)c1ccccc1 (racemic) | 47.9 | 7.26 | 14 | 3.8 | 4.57 | – | – | – |
| CCOc1ccccc1OCC1CNCCO1 (racemic) [VILOXAZINE] | 0.155 | 0.155 | – | 0.17 | 48 | – | – | – |
| COc1ccc([C@H](CN)[C@@H](O)C2CCCCC2)cc1 (racemic) | 1.54 | 4.31 | 84 | 0.33 | 1.46 | – | – | – |
| CN(C)C[C@@H](c1ccccc1)[C@@H](O)c1ccccc1 (racemic) | 2.25 | – | – | 0.99 | 1.55 | – | 47 | 12 |

— ChEMBL document CHEMBL1130764, “Synthesis of a potent wide-spectrum serotonin-, norepinephrine-, dopamine-reuptake inhibitor (SNDRI) and a species-selective dopamine-reuptake inhibitor based on the gamma-amino alcohol functional group” (Bioorg Med Chem Lett, 1998)
